Measurements: patent US7892764B2, “System for seizure suppression” (priority 2006, dated 2011)

Legend:
mouse hippocampal slices [1] = experiment: Basal synaptic transmission: fEPSP in hippocampal CA1 region in the presence of Mg2+; type: cell-based; settings: amiloride 100 μM
Method: FIG. 6. Representative field-EPSPs and summary data showing the lack of inhibition by amiloride on basal synaptic transmission. In the presence of Mg^2+ (1.0 mM), stimulation of Schaffer collaterals induced field excitatory postsynaptic potential (fEPSP) in the CA1 region of the hippocampus.
Preparation of hippocampal slices and brain slice recording. Hippocampal slices were obtained from 8- to 10-week-old mice. The protocol for brain-slice recording was approved by the Institutional Animal Care and Use Committee of Legacy Research. Animals were deeply anesthetized with isoflurane and decapitated. Brains were quickly removed and placed in ice-cold solution that contained: 125 mM sucrose, 2.5 mM KCl, 26 mM NaHCO3, 1.25 mM NaHPO4, 6.0 mM […], 0.5 mM CaCl2, and 10 mM glucose, and was saturated with 95% O2 and 5% CO2 (pH 7.4). […]
Following ˜60 min of incubation at room temperature, individual slices were transferred to a submerged slice chamber with a volume of 0.5 mL (Warner Instruments, Hamden, Conn.) and perfused with oxygenated aCSF (35° C.) at a rate of 3-4 mL/min. […] The population spike and the field excitatory postsynaptic potentials (fEPSP) were recorded in stratum pyramidale and striatum radiatum of hippocampal CA1 region, by stimulating Schaffer Collaterals.

mouse hippocampal slices [2] = experiment: Stimulus train-induced after-discharges in hippocampal slices; type: cell-based
Method: ASIC blockade on seizure-like bursting activity induced by high frequency stimulus trains, e.g., after-discharges (Stasheff et al., 1985), was determined as high frequency electric stimulation generates epileptic bursting without disrupting the balance of excitation versus inhibition thus more closely mimicking epileptogenesis in vivo (Stasheff et al., 1985). Following approximately five trains of stimulation, relatively stable after-discharges were recorded (FIGS. 7A-7E). Amiloride bath perfusion reduced after-discharge duration by about 80% (from 21.0±3.5 sec to 4.7±2.4 sec, n=3; p<0.05) and burst firing frequency by about 90% (from 2.8±0.4 Hz to 0.3±0.1 Hz, n=3, p<0.05, FIG. 7A). Similarly, PcTX1 reduced after-discharge duration from 29.3±8.5 to 11.5±4.1 sec (reduced to 0.44±0.10 of control, n=4, p<0.05) and burst firing frequency from 0.9±0.1 to 0.5±0.2 Hz (reduced to 0.5±0.1 of control, n=4, p<0.05, FIG. 7B). Similar to ASIC1a blockade, seizure activity was attenuated in hippocampal slices from ASIC1^−/− mice (Xiong et al., 2004) (FIGS. 7C-7E). In wild-type (WT) mice, five sets of stimulus trains generated bursting activity with a duration of 13.9±2.0 sec and a firing frequency of 1.6±0.2 Hz, whereas in slices from ASIC1^−/− mice, identical stimulations generated after-discharges of only 5.8±3.3 sec duration and 0.4±0.2 Hz frequency (n=9 for both groups, p<0.05 for difference in duration and p<0.01 for frequency, FIG. 7E).
Preparation of hippocampal slices and brain slice recording. Hippocampal slices were obtained from 8- to 10-week-old mice. The protocol for brain-slice recording was approved by the Institutional Animal Care and Use Committee of Legacy Research. Animals were deeply anesthetized with isoflurane and decapitated. Brains were quickly removed and placed in ice-cold solution that contained: 125 mM sucrose, 2.5 mM KCl, 26 mM NaHCO3, 1.25 mM NaHPO4, 6.0 mM […], 0.5 mM CaCl2, and 10 mM glucose, and was saturated with 95% O2 and 5% CO2 (pH 7.4). Hippocamnpal slices were cut in 400 μm thickness in transverse plane with a vibratome (Leica VT 1000S) and placed in a slice holding chamber (BSC-PC Prechamber, Warner Instrument) and incubated in normal artificial cerebral spinal fluid (aCSF) that contained: 125 mM NaCl, 2.5 mM KCl, 26 mM NaHCO3, 1.25 mM […], 1.0 mM MgSO4, 2.0 mM CaCl2, and 10 mM glucose, and was saturated with 95% O2 and 5% CO2 (pH 7.4).
Following ˜60 min of incubation at room temperature, individual slices were transferred to a submerged slice chamber with a volume of 0.5 mL (Warner Instruments, Hamden, Conn.) and perfused with oxygenated aCSF (35° C.) at a rate of 3-4 mL/min. Recording electrodes were pulled from borosilicate glass and filled with aCSF. The population spike and the field excitatory postsynaptic potentials (fEPSP) were recorded in stratum pyramidale and striatum radiatum of hippocampal CA1 region, by stimulating Schaffer Collaterals.
For low Mg^2+ induced epileptic burst activity, Mg^2+-free aCSF was perfused to the slices for ˜30 min. For stimulus-train induced bursting discharges (STIB), each stimulation train consisted of 120 pulses at 60 Hz and each pulse was 100 μsec in duration (Stasheff et al., 1985). A 10-minute interval of non-stimulation was provided between successive trains of high frequency stimulation. Stimulation electrodes were located in striatum radiatum between CA1 and CA3 region. The population spikes were recorded from striatum pyramidale of the CA3 region.

[3] = 100 μM amiloride bath perfusion

Compound | effect on amplitude or slope of normal fEPSP (mouse hippocampal slices [1]) | after-discharge duration (mouse hippocampal slices [2]; [3]) [s] | burst firing frequency (mouse hippocampal slices [2]; [3]) [Hz] | reduction of after-discharge duration (mouse hippocampal slices [2]; [3]) | reduction of burst firing frequency (mouse hippocampal slices [2]; [3]) | after-discharge duration (mouse hippocampal slices [2]; 200 ng/mL PcTX1) [s] | after-discharge duration relative to control (mouse hippocampal slices [2]; 200 ng/mL PcTX1) | burst firing frequency (mouse hippocampal slices [2]; 200 ng/mL PcTX1) [Hz] | burst firing frequency relative to control (mouse hippocampal slices [2]; 200 ng/mL PcTX1)
NC(N)=NC(=O)c1nc(Cl)c(N)nc1N [amiloride, 3,5-diamino-6-chloro-N(diaminomethylidene)pyrazine-2-carboxamide] | did not affect | 4.7 ± 2.4 | 0.3±0.1 | about 80% | about 90% |  |  |  | 
Psalmotoxin 1 [PcTX1] |  |  |  |  |  | 11.5 ± 4.1 | 0.44±0.10 of control | 0.5±0.2 | 0.5±0.1 of control
